Laboratory results taken from ChEMBL document CHEMBL3880408, “MgluR5 modulators” (2008).

Experiment: Ratio of drug level in brain to plasma in Sprague-Dawley rat by HPLC and MS-MS method
Assay type: ADME, cell-free
Settings: read-out: BPR

Kp, < 0.5:
Cc1cccc(-n2nnc([C@@H](C)Oc3nnc(-c4cn[nH]c(=O)c4)n3C)n2)c1
C[C@@H](Oc1nnc(-c2cn[nH]c(=O)c2)n1C)c1cc(-c2cccc(Cl)c2)on1
C[C@@H](Oc1nnc(-c2ccn(C)c(=O)c2)n1C)c1cc(-c2cccc(Cl)c2)on1
C[C@@H](Oc1nnc(-c2cc[nH]c(=O)c2)n1C)c1noc(-c2cccc(Cl)c2)n1
C[C@@H](Oc1nnc(-c2cc[nH]c(=O)c2)n1C)c1nnn(-c2cccc(Cl)c2)n1
Cc1cccc(-c2cc([C@@H](C)Oc3nnc(-c4cn[nH]c(=O)c4)n3C)no2)c1
Cn1c(OCc2cc(-c3cccc(Cl)c3)on2)nnc1-c1cc[nH]c(=O)c1
C[C@@H](Oc1nnc(-c2cn[nH]c(=O)c2)n1C)c1nnn(-c2cccc(Cl)c2)n1
C[C@@H](Oc1nnc(-c2cn[nH]c(=O)c2)n1C)c1noc(-c2cccc(Cl)c2)n1
C[C@@H](Oc1nnc(-c2ccn(C)c(=O)c2)n1C)c1noc(-c2cccc(Cl)c2)n1
